Test [1] concerns Calu-6 cell line. The test can be described thus: Net internalization of [177Lu]Lu-labeled peptide in Calu-6 cells. Type of test: cell-based, Human. The following applies: 1 hour, 37° C., glycine pH 2.5 acid wash. The procedure: (§1) [^177Lu]LuCl3 was received from venders in HCl solution. For every mCi of [^177Lu]LuCl3 added to the reaction vial (1.5 mL Eppendorf vial), ammonium acetate buffer (0.2 M, pH 4.9, 100 μL, containing 1% w/v ascorbic acid and 6% v/v ethanol) and peptide conjugate (1 nmol) was added. The pH of the solution was determined to be approximately 5 by using pH strips. The reaction vial was incubated at 80° C., 700 RPM for 17-20 minutes. A sample from the reaction was analyzed by RP-HPLC using an Agilent Infinity II 1260 HPLC to determine reaction completion and radiochemical purity. HPLC conditions: Waters XBridge BEH C18 Column, 130 Å, 3.5 μm, 4.6 mm×250 mm; mobile phase: Solvent A=water (with 0.1% formic acid), solvent B=acetonitrile (with 0.1% formic acid). Gradients: 25-45% B in 10 minutes, 45-65% B in 12 minutes, 65-90% in 6 minutes at a flow rate of 0.5 mL/minute. Required amounts of the product were formulated in 1% PBSA for cell studies.
(§2) The study was conducted using Calu-6 cell line (Table 8)
(§3) Adherent cell studies: The cells were cultured in appropriate culture media (20 mL) in tissue culture treated T150 flasks at 37° C. and 5% CO2. Adherent cells were detached (60-70% confluent) using 5 mL Versene at 37° C. for 3 minutes. After confirming the viability using countess and count of detached cells using Trypan blue, the cells were centrifuged at 4° C. for 5 minutes (1,000 revolutions per minute). The cell pellet obtained was washed once with PBS and resuspended in 1% PBSA to obtain the desired cell concentration (5 million cells/mL).
Net internalization: The resuspended cells in 300 μl of 1% PBSA and counted in the gamma counter as “bound fraction” were collected in 1.5 mL Eppendorf tube and pelleted. The pelleted cells were incubated with 300 μl of 50 mM Glycine pH=2.5 for 3 minutes and then pelleted discarding the supernatant. This process was repeated one more time. The pelleted cells were washed with 300 μl of cold 1% PBSA and then resuspended in 300 μl 0.3 M NaOH. This was counted in the gamma counter as “internalized fraction”.
(§4) Calu-6 Cells are Human-Derived, Non-Engineered Lung Cancer Cell that Express B7-H3.

Test [2] concerns Calu-6 cell line. Put plainly: Cell associated (bound) fraction of [177Lu]Lu-labeled peptide in Calu-6 cells. Conditions: 1 hour, 37° C. Type of test: cell-based, Human. The procedure: as §1, §2, §3
Cell associated fraction: Cells were incubated with 300 μL (0.8 μCi) of the incubation buffer (containing radiolabeled peptide [^177Lu]Lu-test peptide) for 1 hour at 37 C (Table 9). Post incubation, the cells were pelleted and washed 2 times using cold PBS+1% BSA. The supernatant and washes were combined and counted together as “unbound fraction” in a gamma counter. The cells were then resuspended in 300 μL of 1% PBS+1% BSA and counted in the gamma counter as cell associated fraction (or bound fraction).
as §4

Test [3] deals with T1, human 4lg B7-H3 (Homo sapiens, UniProt Q5ZPR3).
T1 sequence (Q5ZPR3 29-534): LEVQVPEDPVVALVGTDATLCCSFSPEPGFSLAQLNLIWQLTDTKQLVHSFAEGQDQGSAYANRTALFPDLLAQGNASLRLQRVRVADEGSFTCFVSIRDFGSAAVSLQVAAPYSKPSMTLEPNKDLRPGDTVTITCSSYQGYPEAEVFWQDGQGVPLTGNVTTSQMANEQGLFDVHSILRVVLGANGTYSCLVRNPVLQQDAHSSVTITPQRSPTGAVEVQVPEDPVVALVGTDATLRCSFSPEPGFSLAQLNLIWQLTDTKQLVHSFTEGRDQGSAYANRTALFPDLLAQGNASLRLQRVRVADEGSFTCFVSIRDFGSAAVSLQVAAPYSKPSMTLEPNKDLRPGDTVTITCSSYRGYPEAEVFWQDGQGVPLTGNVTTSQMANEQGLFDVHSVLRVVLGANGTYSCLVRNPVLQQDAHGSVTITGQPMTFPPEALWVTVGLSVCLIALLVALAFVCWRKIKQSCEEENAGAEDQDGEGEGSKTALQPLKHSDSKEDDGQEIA
The test can be described thus: Affinity determination by surface plasmon resonance (SPR) to 4Ig B7-H3. Conditions: 4Ig B7-H3.

Like-named read-outs stand apart in the source and are kept apart here. Starred links: 1 amine or outer side, 2 acyl side, 3 side chain; linkers in the order of their positions; H or OH if unused. Positions of bridges follow the written chain, without caps; N, C: chain ends. Non-standard residues stand in square brackets, D forms with d. Residues, ends and D or L forms follow the SMILES beside them. Groups on a side chain read outwards from the residue. *: point of attachment. Ala(piperidin-4-yl) = O=C([C@H](CC1CCN([*:3])CC1)N[*:1])[*:2]; DOTA = O=C(O)CN1CCN(CC(=O)O)CCN(CC(=O)*)CCN(CC(=O)O)CC1; Trp(5-F) = N[C@@H](Cc1c[nH]c2ccc(F)cc12)C(=O)O; γGlu = O=C(O)[C@H](CCC(=O)[*:2])N[*:1]; 1Nal = N[C@@H](Cc1cccc2ccccc12)C(=O)O; Ala(4-THP) = N[C@@H](CC1CCOCC1)C(=O)O; Val(3-OH) = CC(C)(O)[C@H](N)C(=O)O; Trx = NC[C@H]1CC[C@H](C(=O)O)CC1; Tle = CC(C)(C)[C@H](N)C(=O)O; hLeu = CC(C)CC[C@H](N)C(=O)O; αMeP = C[C@@]1(C(=O)O)CCCN1

On to `CC(=O)N[C@@H](CCC(C)C)C(=O)N[C@@H](Cc1ccc(O)cc1)C(=O)N[C@H]1CSSC[C@@H](C(=O)N[C@@H](Cc2c[nH]c3ccc(F)cc23)C(=O)N[C@@H](Cc2ccccc2)C(=O)N[C@H](C(=O)N[C@H](CCCCNC(=O)CN2CCN(CC(=O)O)CCN(CC(=O)O)CCN(CC(=O)O)CC2)C(=O)O)C(C)(C)O)NC(=O)[C@H](Cc2ccc(O)cc2)NC(=O)[C@H](C(C)C)NC(=O)[C@H](CC(=O)O)NC(=O)[C@H](CC2CCOCC2)NC(=O)[C@H](CCCCN)NC(=O)CNC(=O)[C@H](C(C)(C)C)NC1=O` [compound 303, Ac-hLeu-Y-C-Tbg-G-K-ThpA-D-V-Y-C-5FW-F-hydroxyVal-dLys(DOTA)-COOH] (Ac-[hLeu]YC[Tle]GK[Ala(4-THP)]DVYC[Trp(5-F)]F[Val(3-OH)][dK](DOTA)-OH; disulfide 3-11), for which, in test [1], the “% net internalization” value is on record as “B (25<%≤50)”. Moreover, the “% cell associated fraction” value in test [2] is given as “C (%>50)”. The Kd in test [3] (read-out: SPR KD—25° C., 25° C. flow cell temperature) is < 1 nM; in test [3] (read-out: SPR KD—37° C., 37° C. flow cell temperature), < 1 nM.

Consider “Ac-hLeu-Y-C-Tbg-G-Pip(PEG4-DOTA)Ala-ThpA-D-V-Y-C-5FW-[(2S, 3S)beta-Me-Phe]-hydroxyVal-dAla-COOH [compound 494]”, for which the “% net internalization” value in test [1] is on record as “B (25<%≤50)”. For the same molecule, in test [2], the “% cell associated fraction” value is “C (%>50)”.

Turning to `CC(=O)N[C@@H](CCC(C)C)C(=O)N[C@@H](Cc1ccc(O)cc1)C(=O)N[C@H]1CSSC[C@@H](C(=O)N[C@@H](Cc2c[nH]c3ccc(F)cc23)C(=O)N[C@@H](Cc2ccccc2)C(=O)N[C@H](C(=O)N[C@H](CCCCNC(=O)CC[C@H](NC(=O)[C@H]2CC[C@H](CNC(=O)CN3CCN(CC(=O)O)CCN(CC(=O)O)CCN(CC(=O)O)CC3)CC2)C(=O)O)C(=O)O)C(C)(C)O)NC(=O)[C@H](Cc2ccc(O)cc2)NC(=O)[C@H](C(C)C)NC(=O)[C@H](CC(=O)O)NC(=O)[C@H](CC2CCOCC2)NC(=O)[C@H](CC2CCNCC2)NC(=O)CNC(=O)[C@H](C(C)(C)C)NC1=O` [compound 481, Ac-hLeu-Y-C-Tbg-G-PipAla-ThpA-D-V-Y-C-5FW-F-hydroxyVal-dLys(gE-tranexamate-DOTA)-COOH] (Ac-[hLeu]YC[Tle]G[Ala(piperidin-4-yl)][Ala(4-THP)]DVYC[Trp(5-F)]F[Val(3-OH)][dK]([γGlu-Trx-DOTA])-OH; disulfide 3-11), the Kd in test [3] (SPR KD—37° C., 37° C. flow cell temperature) was < 1 nM.

On to `CC(=O)N[C@@H](CCC(C)C)C(=O)N[C@@H](Cc1ccc(O)cc1)C(=O)N[C@H]1CSSC[C@@H](C(=O)N[C@@H](Cc2cccc3ccccc23)C(=O)N[C@@H](Cc2ccccc2)C(=O)N2CCC[C@@]2(C)C(=O)N[C@H](CCCCNC(=O)CN2CCN(CC(=O)O)CCN(CC(=O)O)CCN(CC(=O)O)CC2)C(N)=O)NC(=O)[C@H](Cc2ccc(O)cc2)NC(=O)[C@H](C(C)C)NC(=O)[C@H](CC(=O)O)NC(=O)[C@H](Cc2ccc(O)cc2)NC(=O)[C@H](CCCCN)NC(=O)CNC(=O)[C@H](C(C)(C)C)NC1=O` [compound 246, Ac-hLeu-Y-C-Tbg-G-K-Y-D-V-Y-C-1Nal-F-aMePro-dLys(DOTA)-CONH2] (Ac-[hLeu]YC[Tle]GKYDVYC[1Nal]F[αMeP][dK](DOTA)-NH2; disulfide 3-11), for which the Kd in test [3] (SPR KD—25° C., 25° C. flow cell temperature) lay in the range of 1 to 10 nM.

(Values after patent US20250296959A1, “B7-H3 TARGETING PEPTIDES AND CONSTRUCTS THEREOF” (Mariana Oncology Inc., priority 2024, published 2025).)
